pEC50: −log10 of the molar value. Converted amounts (≈) assume the structure as drawn.
Assays:
[1] = test system: Salmonella bacterial strains TA98 and TA100; assay: Ames mutagenicity assay: bacteria reverse mutation screening assay; assay type: cell-based; settings: TA98 and TA100, presence or absence of S9
Protocol: The Ames ^(1) Salmonella bacterial strains used in the abbreviated screening assay ^(2) are TA98 and TA100. Actively growing (log phase) bacteria are incubated with test compound and trace amounts of histidine in the presence or absence of S9 for 48 hours on minimal agar plates. Test compound is dissolved in DMSO to a final concentration of 100 mg/ml. The stock is serially diluted to yield concentrations of 100, 50, 25 12.5 and 6.3 mg/ml. Fifty microliters of dosing solution is combined with top agar and buffer (or S9 mix) and poured on duplicate plates to yield effective doses of 5000, 2500, 1250, 625 and 313 μg/plate. Positive and negative controls plates are included. Formation of colonies after 48 hr incubation at 37° C. is an indication of genetic reversion, either arising spontaneously or caused by the test compound. The average number of spontaneous colonies growing on control plates is compared to the number of colonies on test plates. A fold increase of 2-3× over background is generally considered a positive response for mutagenicity. • 1. Maron, D. M. and Ames, B. N. (1983). “Revised Methods for the Salmonella Mutagenicity Test”. Mutat. Res. 113, 173-215. • 2. D. A. Burke, D. J. Wedd, and B. Burlinson (1996). “Use of the Miniscreen assay to screen novel compounds for bacterial mutagenicity in the pharmaceutical industry”. Mutagenesis 11: 201-205.

[2] = Human microsomal stability assay; assay type: in vitro ADME; settings: human liver microsomes 1 mg protein/ml, 1 uM compound, pH 7.4
Protocol: The double time point high throughput screen for human liver microsomal metabolic stability is used to measure the in vitro metabolism of test compounds by human liver microsomal enzymes. The data collected are analyzed to calculate a half-life (t½, min) and clearance (expressed as percent hepatic blood flow, % QH) for test compounds. The assay is performed in 50 mM potassium phosphate buffer, pH 7.4 and 2.5 mM NADPH. Test samples are dissolved in DMSO and acetonitrile for a final assay concentration of 1 uM. Human liver microsomes are diluted in assay buffer to a final assay concentration of 1 mg protein/ml. Compound solution and microsome suspension are added to assay buffer for a final incubation volume of 350 ul. The preparation is incubated for 5 min in a 37° C. water bath. The reaction is started by the addition of NADPH. Volumes of 80 ul are removed from the incubation mix at 0, 5, and 30 min after the start of the reaction and added to 160 ul acetonitrile. The supernatant is transferred to 0.25 mm glass fiber filter plates and centrifuged for 5 min at 3000 rpm. Injection volumes of 10 ul are typically added to HPLC columns with formic acid in water or acetonitrile at a flow rate of 0.3 ml/min. Percent loss of parent compound is calculated from the area under each time point to determine the half-life and clearance. Preferred compounds of the invention will have a human liver microsomal stability of <25% QH.

human CB1R = molecular target: T1, human CB1R (Homo sapiens, UniProt P21554); assay: CB1R mediated modulation of cAMP synthesis; assay type: cell-based; settings: CB1 CAMP EC50, Table XI; CHO cells expressing human CB1R, forskolin-stimulated cAMP
T1 construct: host or cells: CHO cells
Protocol: Compounds of the invention are evaluated for their CB1 agonist or inverse agonistic activity in accordance with the following experimental method.
(§1) CHO cells expressing human CB1R (Euroscreen) are plated at a density of 5000 cells per well in 384 well plates and incubated overnight at 37° C. After removing the media, the cells are treated with test compounds diluted in stimulation buffer containing 1 mM IBMX, 0.25% BSA and 10 uM Forskolin. The assay is incubated for 30 minutes at 37° C. Cells are lysed and the cAMP concentration is measured using DiscoverX—XS cAMP kit, following the manufacturer's protocol. In this setting, agonists will decrease forskolin induced production of cAMP while inverse agonists will further increase forskolin induced production of cAMP. EC50 of agonists are calculated as follows. The maximal amount of cAMP produced by forskolin compared to the level of cAMP inhibited by 1 uM CP55940 is defined as 100%. The EC50 value of each test compound is determined as the concentration at which 50% of the forskolin-stimulated cAMP synthesis is inhibited. Data is analyzed using a four-parameter logistic model. (Model 205 of XLfit 4.0).

[3] = Aqueous (equilibrium) solubility assay; assay type: physicochemical; settings: aqueous buffer, thermodynamic from solid; pH 4.5 buffer, 48 hrs equilibrium; read-out: solubility at pH 4.5
Protocol: The equilibrium solubility of compounds is determined in pH 2, 4.5, 6.8 buffers. Prior to solubility measurement, the crystalline/amorphous characteristics of the sample are determined by observing the powder form under polarized light microscope. Solubility is only measured when compound is crystalline.
Approximately 2 mg of compound are weighed out into a vial and 1-2 ml of buffer are added into the vial (pHs 2 & 4.5, use 1 ml and for pHs 6.8 and 7.4 use 2 ml of buffer). The vial is rotated for 48 hrs protected from light. After 48 hrs, the sample is transferred into an eppendorf tube and centrifuged for 10 minutes at 14,000 RPM, if the supernatant is not clear, it is filtered (PVDF filter). The clear supernatant is diluted if necessary, before analyzing via HPLC. The final pH of the supernatant or the filtrate is measured and reported. The external calibration curve is used to determine the solubility value. The percentage of extraneous peaks relative to the parent peak is monitored in the standard solution as well as the solubility sample. Preferred compounds of the invention will have a solubility of >100 μg/ml.

human CB2R = molecular target: T2, human CB2R (Homo sapiens, UniProt P34972); assay: CB2R mediated modulation of cAMP synthesis; assay type: cell-based
T2 construct: host or cells: CHO cells
Protocol: Compounds of the invention are evaluated for their CB2 agonist or inverse agonistic activity in accordance with the following experimental method.
as §1, with “CB2R” for “CB1R”

T2 sequence (P34972 whole entry): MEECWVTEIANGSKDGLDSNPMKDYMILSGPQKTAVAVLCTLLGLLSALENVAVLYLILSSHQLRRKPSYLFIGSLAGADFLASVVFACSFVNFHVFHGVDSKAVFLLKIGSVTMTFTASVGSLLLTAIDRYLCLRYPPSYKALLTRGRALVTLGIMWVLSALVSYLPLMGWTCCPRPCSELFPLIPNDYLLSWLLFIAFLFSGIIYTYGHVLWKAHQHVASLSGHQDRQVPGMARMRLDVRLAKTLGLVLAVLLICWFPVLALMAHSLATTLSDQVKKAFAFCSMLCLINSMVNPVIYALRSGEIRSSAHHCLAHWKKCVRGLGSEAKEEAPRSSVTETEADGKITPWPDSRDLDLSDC
T1 sequence (P21554 whole entry): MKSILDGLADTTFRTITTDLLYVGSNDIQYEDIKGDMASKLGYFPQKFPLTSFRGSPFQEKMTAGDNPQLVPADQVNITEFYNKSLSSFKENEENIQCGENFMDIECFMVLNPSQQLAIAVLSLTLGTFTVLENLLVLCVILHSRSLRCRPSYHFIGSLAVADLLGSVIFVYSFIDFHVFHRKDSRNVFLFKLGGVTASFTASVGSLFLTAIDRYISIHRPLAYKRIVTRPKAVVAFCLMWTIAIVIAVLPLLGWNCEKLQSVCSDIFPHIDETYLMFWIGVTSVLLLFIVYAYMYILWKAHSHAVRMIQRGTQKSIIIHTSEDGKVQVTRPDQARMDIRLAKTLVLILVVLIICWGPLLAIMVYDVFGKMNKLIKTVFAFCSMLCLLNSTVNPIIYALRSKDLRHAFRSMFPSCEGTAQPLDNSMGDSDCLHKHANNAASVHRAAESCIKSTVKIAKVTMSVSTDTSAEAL

CCC(C)S(=O)(=O)C(C)(C)C(=O)Nc1nc(C(C)(C)C)cs1 (centres unmarked) [Example 44 WO08039645]
Ames [1]: negative
HLM clearance (percent hepatic blood flow) [2]: 67 QH %
pEC50 (human CB1R): 4.97
solubility at 48 h [3]: 13 µg/mL (≈ 37.5 µM)
pEC50 (human CB2R): 7.85

From patent US8329735B2, “Tetrazole compounds which selectively modulate the CB2 receptor” (Boehringer Ingelheim International GmbH, priority 2010, dated 2012)
